Legend:
Pancreatic CCK receptor = target: T1, Pancreatic CCK receptor (Rattus norvegicus, UniProt P30551); experiment: Pancreatic cholecystokinin receptor binding assay (125I-CCK-8); conditions: rat pancreas membranes, 37° C., 30 minutes
T1 construct: Pancreatic receptor membranes were prepared; from tissue; host or cells: rat pancreas membranes
T1 sequence (P30551 1-444): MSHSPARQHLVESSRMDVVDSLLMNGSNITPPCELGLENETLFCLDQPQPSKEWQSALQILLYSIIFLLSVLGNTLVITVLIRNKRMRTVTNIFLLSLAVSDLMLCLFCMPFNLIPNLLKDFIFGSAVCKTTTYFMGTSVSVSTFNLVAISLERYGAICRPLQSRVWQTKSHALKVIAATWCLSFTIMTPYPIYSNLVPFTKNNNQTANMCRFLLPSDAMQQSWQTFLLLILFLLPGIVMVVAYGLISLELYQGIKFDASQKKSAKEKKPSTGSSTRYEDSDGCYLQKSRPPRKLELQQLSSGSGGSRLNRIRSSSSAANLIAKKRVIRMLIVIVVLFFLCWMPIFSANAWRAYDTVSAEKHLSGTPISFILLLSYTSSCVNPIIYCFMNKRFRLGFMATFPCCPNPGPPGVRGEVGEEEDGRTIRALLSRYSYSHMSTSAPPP
Description: Radiolabeled CCK-8 was purchased from New England Nuclear as ^125 I-CCK-8 Receptor binding was performed according to Innis and Snyder Proc. Natl. Acad. Sci., 77, 6917 (1980), with the minor modification of adding the additional protease inhibitors, phenylmethane sulfonyl fluoride (PMSF) and o-phenanthroline, which have no effect on the ^125 I-CCK receptor binding assay. All assays were performed in triplicate. Pancreatic receptor membranes were prepared by homogenzing a gram of fresh rat pancreas tissue in 30 ml TRIS-HCl (50 mM), pH 7.7 using a Brinkman polytron PT10 (Brinkman). The homogenate was washed twice and collected by centrifugation at 48,000×g at 4° C. for 10 minutes. The membranes were resuspended in assay buffer consisting of 5 mM dithiothieitol, 0.1 mM bacitiacin, 5 mM MgCl2.H2 O, 0.2% heat denatured BSA, 1.2 mM PMSF and 0.5 mM O-phenanthroline at a concentration of 100 ml per gram of pancreas. […] The reaction mixtures were mixed briefly and placed in a 37° C. water bath with gentle shaking for 30 minutes. The reaction mixtures were then diluted with 4 ml of ice-cold TRIS buffer, pH 7.7, containing 1 mg/ml bovine serum albumin and immediately filtered in Watman G F/B filters. The filters were washed with 3×4 ml of the same buffer and the radioactivity associated with the filters was counted in a Beckman Gamma 5500 counter. Broths were prepared by adding two volumes of acetone to original broth; supernatants were freeze dried after centrifugation at 1500 g for 10 minutes. The dried samples were then brought up in methanol/H2 O (1:1) and ready for assay.

[1] = cited from earlier work
gastric acid secretion = conditions: cited from earlier work

| IC50 (Pancreatic CCK receptor) [µM] | Compound | further results |
| --- | --- | --- |
| > 10 | CC1=C\C=C\C(=O)Cc2nc(co2)C(=O)N2CCC=C2C(=O)O[C@H](C(C)C)[C@H](C)/C=C/C(=O)NC\C=C\1 [Compound III] | – |
| > 10 | CC1=C\C=C\[C@H](O)Cc2nc(co2)C(=O)N2CCC=C2C(=O)O[C@H](C(C)C)[C@H](C)/C=C/C(=O)NC\C=C\1 [Compound II] | – |
| > 10 | CC1=C\C=C\[C@@H](O)Cc2nc(co2)C(=O)N2CCC=C2C(=O)O[C@H](C(C)C)[C@H](C)/C=C/C(=O)NC\C=C\1 [Compound I] | – |
| > 100 | CC1=C\[C@@H](O)CC(=O)Cc2nc(co2)C(=O)N2CCC=C2C(=O)O[C@H](C(C)C)[C@H](C)/C=C/C(=O)NC\C=C\1 [Virginiamycin M1] | – |
| – | C-terminal octapeptide: C-terminal octapeptide of CCK | efficacy relative to CCK-33 ([1]; compared with CCK-33): same efficacy; potency relative to CCK-33 ([1]; more potent than CCK-33): approximately ten |
| – | Gastrin-17 | potency relative to Gastrin-13 (gastric acid secretion; more potent than Gastrin-13, gastric acid secretion): 2.5 times; potency relative to Gastrin-34 (gastric acid secretion; more potent than Gastrin-34, gastric acid secretion): 5 times |
